The source of these data is EP0590024B1, “TOPICAL COMPOSITION ENHANCING HEALING OF HERPES LESIONS” (VIRO-TEX CORPORATION, priority 1991, dated 1993).

One data set deals with MRC-5 cells. The note with it: for concentrations exhibiting significant cytotoxicity: 1440 min.
For data set [1], the system named is HSV-2. In words: Inactivation studies: direct inactivation of HSV-2. More on the design: species or system herpes simplex virus type-2. The note with it: for concentrations tested at which the compound does not directly inactivate HSV-2: 30 minutes at room temperature, up to highest concentration tested. The procedure:
(§1) A clinical isolate from a genital lesion of Herpes simplex virus, type (HSV-2), was used.
(§2) Stocks of viruses were grown by infecting MRC-5 cells at multiplicity of 0.01 plaque forming units (PFU) per cell and harvested in maintenance medium. Virus was harvested by three cycles of freezing at -70°C and thawing, followed by centrifugation at 1000 x g at 4°C for 15 minutes to remove cell debris. Resulting virus stocks were aliquoted and frozen at -70°C.
To determine if a test compound directly inactivates HSV-2, 0.5 ml of serial dilutions of the compound to be tested was mixed with 0.5 ml of stock HSV-2 (titer = […]) and incubated at room temperature for 30 minutes. After 30 minutes, the compound-virus mixture was diluted 10,000 fold in maintenance medium and virus recovery was determined by inoculating MRC-5 cells. The cells were graded for cytopathic effect after 24 hr, 48 hr, and 72 hr.

In another data set the test system is Vero cells. In words: Cytotoxicity assay in Vero cells. The data set is classed as cell-based, green monkey. The procedure:
A continuous line of human embryo lung cells (MRC-5) were grown in Eagle's minimal essential medium (MEM) in Earle's salts supplemented with 2 mM L-glutamine, […] gentamicin, 0.25 mg/ml amphotericin B (Fungisone) ad 10% heat-inactivated fetal calf serum (growth medium). Cells were grown at 37°C in a humidified 5% CO2 atmosphere or in closed flasks. Maintenance medium was the same basic composition, except the concentration of fetal calf serum was 2%. Vero cells (continuous line of green monkey kidney cells) were grown in the same manner as MRC-5 cells.
Cytotoxicity assays were performed in MRC-5 cells and in Vero cells. The test compound was dissolved in maintenance medium at selected concentrations and inoculated onto MRC-5 or Vero cells in 96 well tissue culture plates. Each concentration was inoculated in triplicate. The plates were incubated at 37°C in 5% CO2 and graded for cytotoxicity at 24,48 and 72 hours after inoculation. The highest concentration of compound showing 50% cytotoxicity after 72 hours was designated the end point.

In data set [2] the test system is HSV-2. Kind of data set: Antiviral studies: inhibition of HSV-2 replication in MRC-5 cells (virus yield). The data set is classed as cell-based, herpes simplex virus type-2. How it is done:
as §1, §2
Antiviral activity, i.e., the ability of the compound to inhibit infection or replication of virus in cells, was measured by infecting confluent monolayers of MRC-5 cells in 12 x 100 mm culture tubes at a multiplicity of infection (MOI) of 3.0 plaque forming units (PFU) per cell of HSV-2 by removing the maintenance medium, washing the monolayers three times with phosphate buffered saline (PBS), and adding 0.1 ml of […] suspended in PBS. The multiplicity of infection was calculated by counting the number of viable cells in a duplicate tube and diluting the stock virus to produce a viral inoculum in a volume of 0.1 ml which contained three times the PFUs as the number of cells counted. After a 60 minute absorption period, the inoculum was removed and 4 mls of test compound at appropriate concentrations in maintenance medium or maintenance medium (control) was added. The tubes were incubated at 37°C for an additional 23 hours. At 24 hours post-infection, the medium was removed and the monolayers were washed twice with PBS and frozen and thawed 3 times in 1 ml of maintenance medium. Virus yields were determined by serial end-point titrations in 96-well tissue culture plates containing MRC-5 cells. All experiments were tested in triplicate. 50% end-points were calculated and titers were expressed in TCID 50 units. Antiviral effect was determined by subtracting the difference between the TCID 50s of the test compound and from the TCID 50s of HSV-2 virus stock titrated in the same experiment and calculated in percentages.

Another data set relates to MS strain of HSV-2. In words: Primary genital HSV-2 infection of guinea pigs, topical treatment. The data set is classed as in vivo. The note with it: ACV as 5%. How it is done:
The antiviral activity of several compounds in a primary genital HSV-2 infection of guinea pigs was tested. The experiments were placebo-controlled and uninfected animals were treated with each of the preparations to assess skin irritation. Groups treated with 5% Acyclovir were included as positive controls.
Virus and Viral Inoculation. The MS strain of HSV-2 was utilized to infect animals. Female Hartley strain guinea pigs, Charles River Breeding Laboratories, Kingston, NY, weighing 250 to 300 g were inoculated intravaginally with 1.4 x 10^5 plaque forming units of HSV-2 one hour after being swabbed for the removal of vaginal secretions.
Treatment of Guinea Pigs. Groups of ten infected guinea pigs were treated topically, 0.1 ml intravaginally and 0.1 ml on external genital skin, three times daily, approximately every eight hours, for seven days, beginning either 6 hr or 48 hr after HSV inoculation. Groups of three uninfected animals were used to assess toxicity of each preparation.
Simple Collection and Virus Assays. To determine the effect of treatment on vaginal virus replication, swabs of vaginal secretions were obtained on days 1, 3, 5, 7 and 10 after HSV-2 inoculation, placed in a tube containing 2.0 ml of media, vortexed and frozen at -70°C until titrated for HSV-2. When all samples were collected, they were thawed, diluted serially and HSV-2 titers determined using a microtiter CPE assay in rabbit kidney cells. Mean peak virus titers and areas under the virus titer-day curves were calculated and analyzed.
Scoring of External Genital Lesions. To determine the effect of therapy on the development and spread of external genital lesions, lesion severity was scored on a 0-5+ scale through the primary infection (21 days). Mean peak lesion scores and the area under the lesion score-day curves were calculated and analyzed.
Evaluation of Efficacy. The number of animals infected over the number inoculated, lesion score-day areas and virus titer-day areas under the curve, peak lesion scores and peak virus titers between untreated and placebo-treated or placebo-treated and drug-treated animals were compared using the Mann-Whitney U rank sum test. A p-value of 0.05 or less was considered significant.
The base formulation is as defined for the preferred embodiment of the composition for enhancing […] of viral lesions, but without SLS or anesthetic. Acyclovir (ACV) was used as a positive control (i.e., having antiviral activity). Placebo (PBS) treated animals were compared with an untreated control animal. 2A was compared with the untreated animals and placebo-treated animals. ACV groups were compared to the placebo-treated group. All others were compared to 2A.

Structures can show the parent of a compound that is named as a salt. Where only a bound is given, the exact number is not on record here.

Consider `CCN(CC)CCOC(=O)c1ccc(N)cc1` [Procaine HCl, Procaine hydrochloride], for which the “concentrations exhibiting significant cytotoxicity” value with MRC-5 cells (human) is on record as “above 0.25%”. In the data set with HSV-2 [1], the “concentrations tested at which the compound does not directly inactivate HSV-2” value is reported as “up to 4%”. Further, the “concentrations showing significant toxicity” value in the data set on Vero cells (monkey) is listed as “above 2.0%”. For the same compound, in the data set with HSV-2 [2] (MOI 3.0, 24 hours post-infection, up to stated concentration), the “concentrations unable to inhibit the replication of HSV-2” value was “up to 2%”. In the data set with HSV-2 [2] (concentration not given), the “inhibition of the replication of HSV-2 / antiviral activity” value is “does not”.
On to `Nc1nc2c(ncn2COCCO)c(=O)[nH]1` [ACV, Acyclovir], for which, in the data set on MS strain of HSV-2 (therapy given 6 hr after viral inoculation, vs placebo, p 0.05), the “virus titer-day area under the curve (AUC)” value was “significantly reduced”. Besides, in the data set with MS strain of HSV-2 (therapy given 6 hr after viral inoculation, vs placebo, p <0.01), the “mean peak virus titer” value is given as “significantly reduced”. In the data set with MS strain of HSV-2 (therapy initiated 6 hr following HSV-2 inoculation, P <0.05 or less), the lesion development result is “significantly decreased”. Also, the “mean peak lesion score” value in the data set on MS strain of HSV-2 (therapy initiated 6 hr following inoculation, P <0.001) is recorded as “reduced”.
For `CCCCNc1ccc(C(=O)OCCN(C)C)cc1` [Tetracaine HCl], in the data set with MRC-5 cells (human), the “concentrations exhibiting significant cytotoxicity” value was “above 0.03%”. Besides, the “concentrations tested at which the compound does not directly inactivate HSV-2” value with HSV-2 [1] was “up to 2%”. For the same compound, the “significant toxicity in Vero cells” value with Vero cells (Vero cells, result in words) is “not in Vero cells”. Moreover, the “inhibition of the replication of HSV-2” value in the data set with HSV-2 [2] (0.25%) is given as “partially inhibited”. Moreover, the “inhibition of the replication of HSV-2 / antiviral activity” value in the data set on HSV-2 [2] (0.5%, HCl) is “partially inhibited”; with HSV-2 [2] (0.5%, listed as tetracaine HCl, HCl), “some antiviral activity”.
As for `O=C(O)c1cccnc1` [Niacin], the “concentrations non-toxic in MRC-5 cells” value in the data set with MRC-5 cells (human) is listed as at most 0.25%. For the same compound, in the data set on HSV-2 [1], the “concentrations tested at which the compound does not directly inactivate HSV-2” value is recorded as “up to 0.25%”. Moreover, in the data set with HSV-2 [2] (concentration not given), the “inhibition of the replication of HSV-2 / antiviral activity” value is “does not inhibit”.
As for `CCCCCCCCCCCCOS(=O)(=O)O` [SLS, sodium lauryl (or dodecyl) sulfate], the “concentrations highly toxic to MRC-5 cells” value with MRC-5 cells (MRC-5 cells, time not stated) is listed as “above 0.0025%”. Further, the “direct inactivation of HSV-2” value in the data set with HSV-2 [1] (concentration of 0.00032%) was “No inactivation”. Moreover, the “inhibition of viral replication” value with HSV-2 [2] (0.0013%) and with HSV-2 [2] (0.0025%) was “does not inhibit” each time.
